Starred links: 1 amine or outer side, 2 acyl side, 3 side chain; linkers in the order of their positions; H or OH if unused. Positions of bridges follow the written chain, without caps; N, C: chain ends. Residues, ends and D or L forms follow the SMILES beside them. *: point of attachment. C18 diacid = O=C(O)CCCCCCCCCCCCCCCCC(=O)*; γGlu = O=C(O)[C@H](CCC(=O)[*:2])N[*:1]; AEEA = NCCOCCOCC(=O)O
Biological target: T1, human natriuretic peptide receptor 2 (hNPR2) (Homo sapiens, UniProt P20594)
T1 construct: expressed in transfected cells; host or cells: HEK293 (ATCC CRL-1573), clone 35, co-transfected with pGloSensor-42F
T1 sequence (P20594 23-1047): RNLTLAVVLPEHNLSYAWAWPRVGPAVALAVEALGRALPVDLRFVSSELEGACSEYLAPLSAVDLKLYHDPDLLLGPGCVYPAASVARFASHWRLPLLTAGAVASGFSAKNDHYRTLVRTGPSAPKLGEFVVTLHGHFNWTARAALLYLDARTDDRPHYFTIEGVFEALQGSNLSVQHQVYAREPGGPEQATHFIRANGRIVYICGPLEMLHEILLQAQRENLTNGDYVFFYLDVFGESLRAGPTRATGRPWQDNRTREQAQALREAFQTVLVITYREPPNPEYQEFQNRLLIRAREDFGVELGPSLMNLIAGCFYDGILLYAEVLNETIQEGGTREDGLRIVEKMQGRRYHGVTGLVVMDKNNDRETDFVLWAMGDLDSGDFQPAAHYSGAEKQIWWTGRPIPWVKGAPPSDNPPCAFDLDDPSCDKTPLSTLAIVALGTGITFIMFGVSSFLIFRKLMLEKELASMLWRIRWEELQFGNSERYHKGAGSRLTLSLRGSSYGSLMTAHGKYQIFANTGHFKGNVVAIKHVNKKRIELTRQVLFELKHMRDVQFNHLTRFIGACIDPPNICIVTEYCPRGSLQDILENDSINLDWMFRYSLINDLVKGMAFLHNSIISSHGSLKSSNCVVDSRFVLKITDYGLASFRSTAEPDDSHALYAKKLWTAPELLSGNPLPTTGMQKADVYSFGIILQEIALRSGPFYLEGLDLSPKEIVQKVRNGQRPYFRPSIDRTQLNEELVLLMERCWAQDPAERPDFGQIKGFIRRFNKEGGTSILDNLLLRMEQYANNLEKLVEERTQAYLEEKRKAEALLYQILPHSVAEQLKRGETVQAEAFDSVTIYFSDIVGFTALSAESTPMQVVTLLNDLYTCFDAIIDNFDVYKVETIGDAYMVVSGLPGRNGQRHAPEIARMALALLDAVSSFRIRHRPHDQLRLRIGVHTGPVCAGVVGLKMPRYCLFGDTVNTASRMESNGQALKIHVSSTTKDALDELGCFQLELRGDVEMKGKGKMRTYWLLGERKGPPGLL
Experiment: In vitro hNPR2 activity assay (cGMP GloSensor reporter, HEK293)
Type: cell-based
Conditions: for EC50: 0% HSA, HEK293-hNPR2/GloSensor cells; for hNPR2 0% HSA. [EC50% rel CNP]: potency relative to CNP22 (0065)
How it was run: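 Potency is the EC50 from a four-parameter logistic fit, also expressed relative to the in-plate CNP22 control (×100), with at least two replicates. Compounds (ten concentrations, […], HSA-free diluent with 1% OVA, 0.01% Tween20) were incubated 30 min at 37 °C on HEK293 cells co-expressing hNPR2 and a GloSensor cGMP luciferase. Luminescence detected with Bright-Glo.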

SMILES	EC50	hNPR2 0% HSA. [EC50% rel CNP]
CC[C@H](C)[C@@H]1NC(=O)[C@H](CCCNC(=N)N)NC(=O)[C@H](CC(=O)O)NC(=O)[C@H](CC(C)C)NC(=O)[C@H](CCCCN)NC(=O)[C@H](CC(C)C)NC(=O)CNC(=O)[C@H](Cc2ccccc2)NC(=O)[C@@H](NC(=O)CNC(=O)[C@H](CCC(N)=O)NC(=O)[C@H](CO)NC(=O)[C@H](CC(C)C)NC(=O)CNC(=O)[C@H](Cc2c[nH]cn2)NC(=O)[C@H](Cc2c[nH]cn2)NC(=O)[C@H](CCC(N)=O)NC(=O)[C@H](C)NC(=O)CNC(=O)[C@H](CCCCN)NC(=O)[C@H](Cc2ccc(O)cc2)NC(=O)COCCOCCNC(=O)COCCOCCNC(=O)CC[C@H](NC(=O)CCCCCCCCCCCCCCCCC(=O)O)C(=O)O)CSSC[C@@H](C(=O)O)NC(=O)CNC(=O)[C@H](CC(C)C)NC(=O)CNC(=O)[C@H](CO)NC(=O)[C@H](CC(C)C)NC(=O)[C@H](CO)NC(=O)CNC1=O [compound 1340] ({C18 diacid-γGlu-AEEA-AEEA}-YKGAQHHGLSQGCFGLKLDRIGSLSGLGC-OH; disulfide 13-29)	0.18 nM	44.4%
CC[C@H](C)[C@@H]1NC(=O)[C@H](CCCNC(=N)N)NC(=O)[C@H](CC(=O)O)NC(=O)[C@H](CC(C)C)NC(=O)[C@H](CCCCN)NC(=O)[C@H](CC(C)C)NC(=O)CNC(=O)[C@H](Cc2ccccc2)NC(=O)[C@@H](NC(=O)CNC(=O)[C@H](CCCCN)NC(=O)[C@H](CO)NC(=O)[C@H](CC(C)C)NC(=O)CNC(=O)[C@H](CCCCN)NC(=O)[C@H](CCCCN)NC(=O)[C@H](CC(N)=O)NC(=O)[C@H](C)NC(=O)CNC(=O)[C@H](CCCCN)NC(=O)[C@H](Cc2ccc(O)cc2)NC(=O)[C@H](CCCCN)NC(=O)[C@H](CCCNC(=N)N)NC(=O)[C@H](C)NC(=O)[C@H](CC(N)=O)NC(=O)[C@@H]2CCCN2C(=O)[C@H](Cc2c[nH]cn2)NC(=O)[C@H](CCC(=O)O)NC(=O)[C@@H](N)CCC(N)=O)CSSC[C@@H](C(=O)O)NC(=O)CNC(=O)[C@H](CC(C)C)NC(=O)CNC(=O)[C@H](CO)NC(=O)[C@H](CCSC)NC(=O)[C@H](CO)NC(=O)CNC1=O [compound 1510]	0.05 nM	139.2%
CC[C@H](C)[C@@H]1NC(=O)[C@H](CCCNC(=N)N)NC(=O)[C@H](CC(=O)O)NC(=O)[C@H](CC(C)C)NC(=O)[C@@H]2CCCN2C(=O)[C@H](CC(C)C)NC(=O)CNC(=O)[C@H](Cc2ccccc2)NC(=O)[C@@H](NC(=O)CNC(=O)[C@H](CO)NC(=O)[C@H](CO)NC(=O)[C@H](CC(C)C)NC(=O)CNC(=O)[C@H](CCCCN)NC(=O)[C@H](CCCCN)NC(=O)[C@H](CCC(N)=O)NC(=O)[C@H](C)NC(=O)CNC(=O)[C@H](CCC(=O)O)NC(=O)[C@H](Cc2ccc(O)cc2)NC(=O)[C@H](CCCCN)NC(=O)[C@H](CCCNC(=N)N)NC(=O)[C@H](C)NC(=O)[C@H](CCC(N)=O)NC(=O)[C@@H]2CCCN2C(=O)[C@H](Cc2c[nH]cn2)NC(=O)[C@H](CCC(=O)O)NC(=O)[C@H](CCC(N)=O)NC(=O)CC[C@H](NC(=O)CC[C@H](NC(=O)CC[C@H](NC(=O)CC[C@H](NC(=O)CCCCCCCCCCCCCCCCC(=O)O)C(=O)O)C(=O)O)C(=O)O)C(=O)O)CSSC[C@@H](C(=O)O)NC(=O)CNC(=O)[C@H](CC(C)C)NC(=O)CNC(=O)[C@H](CO)NC(=O)[C@H](CC(C)C)NC(=O)[C@H](CO)NC(=O)CNC1=O [compound 1390] ({C18 diacid-γGlu-γGlu-γGlu-γGlu}-QEHPQARKYEGAQKKGLSSGCFGLPLDRIGSLSGLGC-OH; disulfide 21-37; C-terminus assumed)	–	84.6%
CC[C@H](C)[C@@H]1NC(=O)[C@H](CCCNC(=N)N)NC(=O)[C@H](CC(=O)O)NC(=O)[C@H](CC(C)C)NC(=O)[C@@H]2CCCN2C(=O)[C@H](CC(C)C)NC(=O)CNC(=O)[C@H](Cc2ccccc2)NC(=O)[C@@H](NC(=O)CNC(=O)[C@H](CCCCN)NC(=O)[C@H](CO)NC(=O)[C@H](CC(C)C)NC(=O)CNC(=O)[C@H](CCCCN)NC(=O)[C@H](CCCCN)NC(=O)[C@H](CCC(N)=O)NC(=O)[C@H](C)NC(=O)CNC(=O)[C@H](Cc2c[nH]cn2)NC(=O)[C@H](CCC(=O)O)NC(=O)COCCOCCNC(=O)COCCOCCNC(=O)COCCOCCNC(=O)CC[C@H](NC(=O)CCCCCCCCCCCCCCCCC(=O)O)C(=O)O)CSSC[C@@H](C(=O)O)NC(=O)CNC(=O)[C@H](CC(C)C)NC(=O)CNC(=O)[C@H](CO)NC(=O)[C@H](CC(C)C)NC(=O)[C@H](CO)NC(=O)CNC1=O [compound 1353] ({C18 diacid-γGlu-AEEA-AEEA-AEEA}-EHGAQKKGLSKGCFGLPLDRIGSLSGLGC-OH; disulfide 13-29; C-terminus assumed)	–	9.0%
CC[C@H](C)[C@@H]1NC(=O)[C@H](CCCNC(=N)N)NC(=O)[C@H](CC(=O)O)NC(=O)[C@H](CC(C)C)NC(=O)[C@@H]2CCCN2C(=O)[C@H](CC(C)C)NC(=O)CNC(=O)[C@H](Cc2ccccc2)NC(=O)[C@@H](NC(=O)CNC(=O)[C@H](CCC(N)=O)NC(=O)[C@H](CO)NC(=O)[C@H](CC(C)C)NC(=O)CNC(=O)[C@H](Cc2c[nH]cn2)NC(=O)[C@H](Cc2c[nH]cn2)NC(=O)[C@H](CCC(N)=O)NC(=O)[C@H](C)NC(=O)CNC(=O)[C@H](CCCCN)NC(=O)[C@H](Cc2ccc(O)cc2)NC(=O)COCCOCCNC(=O)COCCOCCNC(=O)CC[C@H](NC(=O)CCCCCCCCCCCCCCCCC(=O)O)C(=O)O)CSSC[C@@H](C(=O)O)NC(=O)CNC(=O)[C@H](CC(C)C)NC(=O)CNC(=O)[C@H](CO)NC(=O)[C@H](CC(C)C)NC(=O)[C@H](CO)NC(=O)CNC1=O [compound 1341] ({C18 diacid-γGlu-AEEA-AEEA}-YKGAQHHGLSQGCFGLPLDRIGSLSGLGC-OH; disulfide 13-29; C-terminus assumed)	–	16.7%
CC[C@H](C)[C@@H]1NC(=O)[C@H](CCCNC(=N)N)NC(=O)[C@H](CC(=O)O)NC(=O)[C@H](CC(C)C)NC(=O)[C@@H]2CCCN2C(=O)[C@H](CC(C)C)NC(=O)CNC(=O)[C@H](Cc2ccccc2)NC(=O)[C@@H](NC(=O)CNC(=O)[C@H](CO)NC(=O)[C@H](CO)NC(=O)[C@H](CC(C)C)NC(=O)CNC(=O)[C@H](CCCCN)NC(=O)[C@H](CCC(=O)O)NC(=O)[C@H](CCC(N)=O)NC(=O)[C@H](C)NC(=O)CNC(=O)[C@H](CCC(=O)O)NC(=O)COCCOCCNC(=O)COCCOCCNC(=O)CC[C@H](NC(=O)CCCCCCCCCCCCCCCCC(=O)O)C(=O)O)CSSC[C@@H](C(=O)O)NC(=O)CNC(=O)[C@H](CC(C)C)NC(=O)CNC(=O)[C@H](CO)NC(=O)[C@H](CC(C)C)NC(=O)[C@H](CO)NC(=O)CNC1=O [compound 1287] ({C18 diacid-γGlu-AEEA-AEEA}-EGAQEKGLSSGCFGLPLDRIGSLSGLGC-OH; disulfide 12-28)	–	2.9%
CC[C@H](C)[C@@H]1NC(=O)[C@H](CCCNC(=N)N)NC(=O)[C@H](CC(=O)O)NC(=O)[C@H](CC(C)C)NC(=O)[C@H](CCCCN)NC(=O)[C@H](CC(C)C)NC(=O)CNC(=O)[C@H](Cc2ccccc2)NC(=O)[C@@H](NC(=O)CNC(=O)[C@H](CCCCN)NC(=O)[C@H](CO)NC(=O)[C@H](CC(C)C)NC(=O)CNC(=O)[C@H](CCCCN)NC(=O)[C@H](CCCCN)NC(=O)[C@H](CCC(N)=O)NC(=O)[C@H](C)NC(=O)CNC(=O)[C@H](Cc2c[nH]cn2)NC(=O)[C@H](CCC(=O)O)NC(=O)COCCOCCNC(=O)COCCOCCNC(=O)COCCOCCNC(=O)CC[C@H](NC(=O)CC[C@H](NC(=O)CCCCCCCCCCCCCCCCC(=O)O)C(=O)O)C(=O)O)CSSC[C@@H](C(=O)O)NC(=O)CNC(=O)[C@H](CC(C)C)NC(=O)CNC(=O)[C@H](CO)NC(=O)[C@H](CC(C)C)NC(=O)[C@H](CO)NC(=O)CNC1=O [compound 1357]	2.53 nM	4.3%
